The conditions of the series: 101.33 kPa, Liquid; for viscosity: Capillary tube (Ostwald / Ubbelohde) method; for mass density: Vibrating tube method.

± gives the expanded uncertainty stated by the source.

A word on the viscosity: it is the resistance of a fluid to flow. By mass density is commonly meant the mass of a sample divided by its volume. Take `Cc1ccccc1` [toluene]: the viscosity reads like this: (293.15 K) 0.5891 ± 0.0061 mPa·s; (298.15 K) 0.5528 ± 0.006 mPa·s. In addition, the mass density came to 866.7 ± 0.6 kg/m3 (293.15 K) and 862 ± 0.6 kg/m3 (298.15 K).
The corresponding values for `C1CCCCC1` [cyclohexane] are 0.978 ± 0.0084 mPa·s, 0.8931 ± 0.0079 mPa·s, 778.7 ± 0.3 kg/m3 and 773.9 ± 0.3 kg/m3.
For `CCCCCCCC` [octane], in that order: 0.5433 ± 0.0059 mPa·s, 0.5108 ± 0.0057 mPa·s, 702.5 ± 0.6 kg/m3 and 698.5 ± 0.6 kg/m3.
For `CCCCCCC` [heptane], in that order: 0.412 ± 0.0053 mPa·s, 0.3895 ± 0.0052 mPa·s, 684 ± 0.6 kg/m3 and 679.7 ± 0.6 kg/m3.
`CCc1ccccc1` [ethylbenzene]: for the setting “293.15 K”, the viscosity is given as 0.6735 ± 0.0066 mPa·s and the mass density is given as 867.1 ± 0.6 kg/m3. In addition, where the note is “298.15 K”, the viscosity is on record as 0.6318 ± 0.0064 mPa·s and the mass density is listed as 862.7 ± 0.6 kg/m3.

Values taken from the NIST ThermoML archive (doi:10.1007/s10765-014-1759-1).
